The test system of data set [1] is Hct116 cells with homozygous deletion of p53. How it is done: (§1) (a) Sensitivity of colon cancer cell lines to 5-FU. Cells were stained four days after addition of the drug. (b to e, g) Cytopathic effect assays using 10-fold dilutions of virus starting from a concentration of 10 pfu/cell. Fresh medium was added four days after infection and cells were stained 5 (SW480), 7 (Hct116 and Hct116^−/−), or 8 (HT29 and HLF) days post-infection. (f) 5-FC was added either immediately after infection (early, E) or four days after infection (late, L). Cells were stained 8 days after infection.
(§2) Cells in six-well plates were infected with ten-fold dilutions of virus in DMEM. Two hours after infection, the medium was replaced with complete medium containing or not 100 μg/ml of 5-fluorocytosine (Sigma, St. Louis, USA). Four days after infection, new medium was added. Late addition of 5-FC was performed at that time. After five to eight days (see legend to FIG. 4), the cells were fixed with 4% formaldehyde in PBS and stained with crystal violet. For the sensitivity to 5-fluorouracil (Sigma, St. Louis, USA), the drug was added at various concentrations for four days before staining with crystal violet.

For another data set, the system named is SW480 cells. How it is done: as §1, §2

With `O=c1[nH]cc(F)c(=O)[nH]1` [5-FU, 5-fluorouracil], the “resistance of p53-deleted Hct116 cells to 5-FU relative to parental cells” value in data set [1] is given as “only slightly more resistant than the parental cells”. In addition, in the data set on SW480 cells, the “resistance of SW480 cells to 5-FU relative to the other cell lines” value is “at least 10 fold”.
